Where two headings read alike, the source gives them in different places.

The data set is described as follows: Plasma and brain NVS-PAK1-1 concentrations in 5xFAD mice. The format is in vivo. The note with it: for concentration at 4 h: mouse, po, 100 mg/kg, 4 h after final dose. The protocol: Serial blood was collected from n = 3 per treatment group at 0.5, 1, 2, and 4 hours post dose; with terminal blood and brain collected at 4 hours post dose. A staggered cohort of n = 3 per treatment group were assigned to serial blood collections at 0.5, 1, 2, and 8 hours post dose with terminal blood and brain collected at 4 and 24 hours post dose. Informed by exposure data from the initial PK/PD study, a subsequent chronic PK/PD study was designed to evaluate twice daily treatment of 100 mg/kg (PO) in female and male 5xFAD mice compared to age‐ and sex‐matched vehicle‐treated 5xFAD and vehicle‐treated WT littermate controls (Table S2 in supporting information). Terminal blood and brain was collected at 4 hours after the final dose. […] All in vivo target engagement and PK/PD studies were conducted under blinded conditions for age, genotype, and treatment, and the blind was maintained until after analyses were conducted.
Drug concentrations were prepared immediately before dosing each day. The dose volume was delivered at 10 mL/kg based on each subject's daily weight collected just prior to the morning dose and administered via PO. For the chronic PD study, twice daily dosing (BID) was conducted between 7:00 and 9:00 am each morning and 3:00 to 5:00 pm each evening with the same day's formulation stored at 4°C between dosing intervals.
For serial blood sampling, 50 µL of blood was collected via the tail tip route into heparin‐coated glass capillary tubes (Drummond scientific # 1‐000‐7500‐C/5) in non‐anesthetized mice. For all terminal timepoints, tissue collection was conducted at 4 or 24 hours post dose for acute studies (Tables S1–S2) and 4 hours after the final dose administrated for chronic studies. Mice were anesthetized with isoflurane to the surgical plane of anesthesia. After decapitation, trunk blood was collected into heparin‐coated tubes for terminal PK analysis with the remaining trunk blood decanted into EDTA‐coated tubes for PD analysis. Blood was kept on ice until centrifugation (typically 20–60 minutes post collection), then centrifuged at 19745 g for 10 minutes at 4°C for PK samples and 20 minutes for PD samples (e.g., plasma Aβ40, Aβ42, neurofilament light chain [NfL]), followed by storage at −80°C until analysis. The brain was quickly removed from the skull, briefly rinsed in cold PBS, and divided sagittally at the midline into left and right hemispheres. The left hemisphere without cerebellum was quickly chopped and mixed into three equally aliquoted mixed parts then placed into three cold cryotubes. Cryotubes were immediately snap frozen on dry ice and stored at −80°C until analysis. The right hemisphere was maintained intact and immediately placed on dry ice and stored at −80°C until shipped to Stanford University for Golgi staining and morphological analyses.
For plasma samples, three volumes of acetonitrile containing internal standard was added to one volume of plasma, and centrifuged at 3000 g for 10 minute; then, the supernatant was removed and analyzed by LC‐MS/MS. Calibration standards and quality controls were prepared from a 1 mg/mL stock solution and subsequently a series of working solutions in methanol:water (1:1, v/v) that are spiked into blank plasma to yield a series of calibration standard samples in the range of 1 ng/mL to 10 µg/mL and QC samples at three concentration levels (low, middle, and high). All plasma samples were treated identically to the calibration standards and QC samples. For analysis of brain, one third of the left mixed‐chopped hemisphere was homogenized in three volumes of PBS buffer (pH 7.4; v/w = 3/1). Subsequently, three volumes of acetonitrile‐containing internal standard was added to one volume of each tissue homogenate, and the mixture was vortexed, centrifuged at 3000 g for 10 minutes, and supernatants were used for LC‐MS/MS.

For the compound `CC(C)NC(=O)N1CC[C@H](NC2=Nc3cc(F)ccc3N(CC(F)F)c3ccc(Cl)cc32)C1` [NVS‐PAK1‐1, (S)‐3‐([2‐chloro‐5‐(2,2‐difluoroethyl)‐8‐fluoro‐5H‐dibenzo[b,e][1,4]diazepin‐11‐yl]amino)‐N‐isopropylpyrrolidine‐1‐carboxamide], the concentration at 4 h (female, 5xFAD, brain, aged 5xFAD females, 100 mg/kg BID PO 31 days, read-out: brain concentration) came out at 58.3 ± 26.1 ng/g; the concentration at 4 h (female, 5xFAD, brain, young 5xFAD females, 100 mg/kg BID PO 12 weeks, read-out: mean brain concentration) stood at 44.9 ± 14.1 ng/g; the concentration at 4 h (female, 5xFAD, plasma, aged 5xFAD females, 100 mg/kg BID PO 31 days, read-out: plasma concentration) came out at 354 ± 138 ng/mL; the concentration at 4 h (female, 5xFAD, plasma, young 5xFAD females, 100 mg/kg BID PO 12 weeks, read-out: average plasma concentration) worked out at 324 ± 104 ng/mL; the concentration at 4 h (male, 5xFAD, brain, aged 5xFAD males, 100 mg/kg BID PO 31 days, read-out: brain concentration) turned out to be 49.1 ± 17.6 ng/g; the concentration at 4 h (male, 5xFAD, brain, young 5xFAD males, 100 mg/kg BID PO 12 weeks, read-out: mean brain concentration) was 98.5 ± 34.4 ng/g. For the same compound, the concentration at 4 h reads like this: (male, 5xFAD, plasma, aged 5xFAD males, 100 mg/kg BID PO 31 days, read-out: plasma concentration) 140 ± 27.9 ng/mL; (male, 5xFAD, plasma, young 5xFAD males, 100 mg/kg BID PO 12 weeks, read-out: average plasma concentration) 309 ± 104 ng/mL. Also, the “levels in brain or plasma” value (single PO dose 100 mg/kg, 24 hours post administration, 5xFAD) was “lack of detectable levels”. In addition, the brain concentration result (single PO dose 10 or 50 mg/kg, 24 hours post dose, aged 5xFAD) is on record as “BLOQ”.
